This passage reports relative viability results from the supplement of paper PMC10307832.

Holding throughout (experiment): relative viability (nuclei count vs DMSO), 5 days (fraction); higher = more cells survive
Compound in assay [1]: CCN(CCO)CCCC(C)Nc1ccnc2cc(Cl)ccc12 [Hydroxychloroquine] + COc1cccc2cc(-c3nc([C@H]4CC[C@H](C(=O)O)CC4)n4ncnc(N)c34)[nH]c12 [OSI-027] (partner 0.5 µM)
The method in brief:
(§1)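 Relative viability is defined as nuclei in treated wells over nuclei in vehicle wells. Duplicate plates were run and medians reported. Lung cancer cell lines in 1536-well plates were dosed by pin tool one day after seeding, with one drug or with a fixed anchor-drug dose plus five library-drug doses (not always all listed) in √10 steps, and nuclei were counted after 5 days.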

Compound in assay [2]: CCN(CCO)CCCC(C)Nc1ccnc2cc(Cl)ccc12 [Hydroxychloroquine] + CC(=O)Nc1cccc(-n2c(=O)n(C3CC3)c(=O)c3c(Nc4ccc(I)cc4F)n(C)c(=O)c(C)c32)c1 [Trametinib] (partner 0.02 µM)
The method in brief: as §1

Compound in assay [3]: CCN(CCO)CCCC(C)Nc1ccnc2cc(Cl)ccc12 [Hydroxychloroquine] + C[C@]1(O)C[C@@H](c2nc(-c3ccc4ccc(-c5ccccc5)nc4c3)c3c(N)nccn32)C1 [Linsitinib] (partner 1 µM)
The method in brief:
as §1

Compound in assay [4]: CCN(CCO)CCCC(C)Nc1ccnc2cc(Cl)ccc12 [Hydroxychloroquine] + CS(=O)(=O)CCNCc1ccc(-c2ccc3ncnc(Nc4ccc(OCc5cccc(F)c5)c(Cl)c4)c3c2)o1 [Lapatinib] (partner 2 µM)
The procedure, abridged:
as §1

In the case of PC-3 [JPC-3], the relative viability in assay [1] (first compound 0.5 µM) amounted to 0.743; in assay [1] (first compound 1.581 µM), 0.642; in assay [1] (first compound 5 µM) it was 0.82; in assay [1] (first compound 15.81 µM), 0.745; in assay [1] (first compound 50 µM), 0.924; in assay [2] (first compound 0.5 µM) it was 0.694. Besides, the relative viability in assay [2] (first compound 1.581 µM) turned out to be 0.69; in assay [2] (first compound 5 µM) it was 0.668; in assay [2] (first compound 15.81 µM), 0.723; in assay [2] (first compound 50 µM), 0.681; in assay [3] (first compound 0.5 µM), 0.983; in assay [3] (first compound 1.581 µM) it was 0.948. For the same cell line, the relative viability came to 0.923 in assay [3] (first compound 5 µM); 1.01 in assay [3] (first compound 15.81 µM); 0.979 in assay [3] (first compound 50 µM); 0.485 in assay [4] (first compound 0.5 µM); 0.423 in assay [4] (first compound 1.581 µM); 0.421 in assay [4] (first compound 5 µM). Also, the relative viability in assay [4] (first compound 15.81 µM) was found to be 0.46; in assay [4] (first compound 50 µM), 0.501.
Turning to PC-14, the relative viability in assay [1] (first compound 0.5 µM) is 0.958; in assay [1] (first compound 1.581 µM), 0.586; in assay [1] (first compound 5 µM) it was 0.872; in assay [1] (first compound 15.81 µM), 0.861; in assay [1] (first compound 50 µM) it was 0.927; in assay [2] (first compound 0.5 µM), 0.708. Also, the relative viability is 0.846 in assay [2] (first compound 1.581 µM); 0.667 in assay [2] (first compound 5 µM); 0.798 in assay [2] (first compound 15.81 µM); 0.687 in assay [2] (first compound 50 µM); 0.889 in assay [3] (first compound 0.5 µM); 1.07 in assay [3] (first compound 1.581 µM). Also, the relative viability was determined as 0.995 in assay [3] (first compound 5 µM); 1.03 in assay [3] (first compound 15.81 µM); 0.97 in assay [3] (first compound 50 µM); 0.348 in assay [4] (first compound 0.5 µM); 0.354 in assay [4] (first compound 1.581 µM); 0.291 in assay [4] (first compound 5 µM). Besides, the relative viability was found to be 0.306 in assay [4] (first compound 15.81 µM) and 0.292 in assay [4] (first compound 50 µM).
Consider RERF-LC-KJ, for which the relative viability came to 0.587 in assay [1] (first compound 0.5 µM); 0.5 in assay [1] (first compound 1.581 µM); 0.537 in assay [1] (first compound 5 µM); 0.631 in assay [1] (first compound 15.81 µM); 0.609 in assay [1] (first compound 50 µM); 0.858 in assay [2] (first compound 0.5 µM). In addition, the relative viability was found to be 0.826 in assay [2] (first compound 1.581 µM); 0.825 in assay [2] (first compound 5 µM); 0.83 in assay [2] (first compound 15.81 µM); 0.886 in assay [2] (first compound 50 µM); 0.896 in assay [3] (first compound 0.5 µM); 0.885 in assay [3] (first compound 1.581 µM). Moreover, the relative viability is 0.911 in assay [3] (first compound 5 µM); 0.854 in assay [3] (first compound 15.81 µM); 0.822 in assay [3] (first compound 50 µM); 0.847 in assay [4] (first compound 0.5 µM); 0.805 in assay [4] (first compound 1.581 µM); 0.942 in assay [4] (first compound 5 µM). For the same cell line, the relative viability is 0.779 in assay [4] (first compound 15.81 µM) and 0.94 in assay [4] (first compound 50 µM).
For SK-LU-1, the relative viability in assay [1] (first compound 0.5 µM) stood at 0.394; in assay [1] (first compound 1.581 µM) it was 0.348; in assay [1] (first compound 5 µM) it was 0.337; in assay [1] (first compound 15.81 µM), 0.334; in assay [1] (first compound 50 µM), 0.34; in assay [2] (first compound 0.5 µM), 0.454. The relative viability is 0.374 in assay [2] (first compound 1.581 µM); 0.508 in assay [2] (first compound 5 µM); 0.462 in assay [2] (first compound 15.81 µM); 0.404 in assay [2] (first compound 50 µM); 1.11 in assay [3] (first compound 0.5 µM); 1.09 in assay [3] (first compound 1.581 µM). For the same cell line, the relative viability amounted to 1.04 in assay [3] (first compound 5 µM); 1.19 in assay [3] (first compound 15.81 µM); 0.982 in assay [3] (first compound 50 µM); 0.932 in assay [4] (first compound 0.5 µM); 0.845 in assay [4] (first compound 1.581 µM); 0.896 in assay [4] (first compound 5 µM). In addition, the results for the relative viability in assay [4] (first compound 15.81 µM) and in assay [4] (first compound 50 µM) were 0.871 and 0.909, respectively.
SK-MES-1: the relative viability stood at 0.623 in assay [1] (first compound 0.5 µM); 0.381 in assay [1] (first compound 1.581 µM); 0.712 in assay [1] (first compound 5 µM); 0.67 in assay [1] (first compound 15.81 µM); 0.589 in assay [1] (first compound 50 µM); 0.558 in assay [2] (first compound 0.5 µM). Also, the relative viability in assay [2] (first compound 1.581 µM) stood at 0.52; in assay [2] (first compound 5 µM), 0.538; in assay [2] (first compound 15.81 µM), 0.559; in assay [2] (first compound 50 µM), 0.553; in assay [3] (first compound 0.5 µM), 1.1; in assay [3] (first compound 1.581 µM) it was 1.09. Besides, the relative viability in assay [3] (first compound 5 µM) amounted to 1.12; in assay [3] (first compound 15.81 µM) it was 1.16; in assay [3] (first compound 50 µM), 1.03; in assay [4] (first compound 0.5 µM) it was 0.515; in assay [4] (first compound 1.581 µM), 0.418; in assay [4] (first compound 5 µM) it was 0.487. In addition, the relative viability amounted to 0.472 in assay [4] (first compound 15.81 µM) and 0.449 in assay [4] (first compound 50 µM).
For the cell line SW 1573, the relative viability in assay [1] (first compound 0.5 µM) was determined as 0.591; in assay [1] (first compound 1.581 µM), 0.524; in assay [1] (first compound 5 µM) it was 0.674; in assay [1] (first compound 15.81 µM), 0.649; in assay [1] (first compound 50 µM) it was 0.826; in assay [2] (first compound 0.5 µM) it was 0.617. In addition, the relative viability stood at 0.595 in assay [2] (first compound 1.581 µM); 0.55 in assay [2] (first compound 5 µM); 0.625 in assay [2] (first compound 15.81 µM); 0.499 in assay [2] (first compound 50 µM); 0.698 in assay [3] (first compound 0.5 µM); 0.625 in assay [3] (first compound 1.581 µM). Further, the relative viability in assay [3] (first compound 5 µM) turned out to be 0.67; in assay [3] (first compound 15.81 µM) it was 0.74; in assay [3] (first compound 50 µM) it was 0.674; in assay [4] (first compound 0.5 µM), 0.98; in assay [4] (first compound 1.581 µM), 1.01; in assay [4] (first compound 5 µM), 1.15. Also, the relative viability in assay [4] (first compound 15.81 µM) stood at 1.07; in assay [4] (first compound 50 µM) it was 0.997.
Regarding UMC-11, the relative viability in assay [1] (first compound 1.581 µM) turned out to be 0.402; in assay [1] (first compound 5 µM), 0.486; in assay [1] (first compound 15.81 µM) it was 0.403; in assay [1] (first compound 50 µM), 0.538; in assay [2] (first compound 0.5 µM) it was 0.642; in assay [2] (first compound 1.581 µM) it was 0.431. Further, the relative viability in assay [2] (first compound 5 µM) was determined as 0.762; in assay [2] (first compound 15.81 µM) it was 0.669; in assay [2] (first compound 50 µM), 0.741; in assay [3] (first compound 0.5 µM) it was 0.928; in assay [3] (first compound 1.581 µM) it was 1.02; in assay [3] (first compound 5 µM) it was 0.986. In addition, the relative viability came out at 1.1 in assay [3] (first compound 15.81 µM); 1.22 in assay [3] (first compound 50 µM); 0.829 in assay [4] (first compound 0.5 µM); 0.735 in assay [4] (first compound 1.581 µM); 0.982 in assay [4] (first compound 5 µM); 1.1 in assay [4] (first compound 15.81 µM). The relative viability in assay [4] (first compound 50 µM) came out at 1.13.
